Patent US11382328B2, “Rapid drug discovery methods for pathogen inactivation” (priority 2019, dated 2022)

System: E. coli strain W3110
Assay: Synergy assays: Biolog chemical sensitivity panels with Group IB metal, coefficient of drug interaction (CDI) from relative growth
Type: cell-based
Conditions: for CDI (coefficient of drug interaction), gold + biocide: Gold (μM); for CDI (coefficient of drug interaction), copper mixed with biocide: Copper (mM) section
[1] = Silver 0.5 μM, biocide concentration 3 of 4
[2] = Silver 0.5 μM, biocide concentration 4 of 4
[3] = Silver 1.0 μM, biocide concentration 3 of 4
[4] = Silver 1.0 μM, biocide concentration 4 of 4
[5] = Silver 5.0 μM, biocide concentration 3 of 4
[6] = Silver 5.0 μM, biocide concentration 4 of 4
[7] = 1st of 3 copper concentrations (value not shown), 3rd of four biocide concentrations
[8] = 1st of 3 copper concentrations (value not shown), 4th of four biocide concentrations
[9] = 2nd of 3 copper concentrations (value not shown), 3rd of four biocide concentrations
[10] = 2nd of 3 copper concentrations (value not shown), 4th of four biocide concentrations
[11] = 3rd of 3 copper concentrations (value not shown), 3rd of four biocide concentrations
[12] = 3rd of 3 copper concentrations (value not shown), 4th of four biocide concentrations
[13] = Gold section of Table 5, first of three gold concentrations (μM, value not given), biocide concentration 3 of 4
[14] = Gold section of Table 5, first of three gold concentrations (μM, value not given), biocide concentration 4 of 4
[15] = Gold section of Table 5, second of three gold concentrations (μM, value not given), biocide concentration 3 of 4
[16] = Gold section of Table 5, second of three gold concentrations (μM, value not given), biocide concentration 4 of 4
[17] = Gold section of Table 5, third of three gold concentrations (μM, value not given), biocide concentration 3 of 4
[18] = Gold section of Table 5, third of three gold concentrations (μM, value not given), biocide concentration 4 of 4
[19] = Silver 0.5 μM, 3rd of four biocide concentrations, E. coli
[20] = Silver 0.5 μM, 4th of four biocide concentrations, E. coli
[21] = Silver 1.0 μM, 3rd of four biocide concentrations, E. coli
[22] = Silver 1.0 μM, 4th of four biocide concentrations, E. coli
[23] = Silver 5.0 μM, 3rd of four biocide concentrations, E. coli
[24] = Silver 5.0 μM, 4th of four biocide concentrations, E. coli
[25] = Gold 50 μM, biocide concentration 4 of 4, E. coli

SMILES: N.N.N.N.N.N.N.N.N.N.N.N.N.N.[Cl-].[Cl-].[Cl-].[Cl-].[Cl-].[Cl-].[O-2].[O-2].[Ru+3].[Ru+3].[Ru+4] [ruthenium red]
- CDI (coefficient of drug interaction) (Copper (mM), 1st of 3 copper concentrations (head line not shown), biocide concentration 1 of 4, E. coli): 0.73
- CDI (coefficient of drug interaction) (Copper (mM), 1st of 3 copper concentrations (head line not shown), biocide concentration 2 of 4, E. coli): 0.60
- CDI (coefficient of drug interaction) (Copper (mM), 1st of 3 copper concentrations (head line not shown), biocide concentration 3 of 4, E. coli): 0.51
- CDI (coefficient of drug interaction) (Copper (mM), 1st of 3 copper concentrations (head line not shown), biocide concentration 4 of 4, E. coli): 0.50
- CDI (coefficient of drug interaction) (Copper (mM), 2nd of 3 copper concentrations (head line not shown), biocide concentration 1 of 4, E. coli): 0.52
- CDI (coefficient of drug interaction) (Copper (mM), 2nd of 3 copper concentrations (head line not shown), biocide concentration 2 of 4, E. coli): 0.47
- CDI (coefficient of drug interaction) (Copper (mM), 2nd of 3 copper concentrations (head line not shown), biocide concentration 3 of 4, E. coli): 0.37
- CDI (coefficient of drug interaction) (Copper (mM), 2nd of 3 copper concentrations (head line not shown), biocide concentration 4 of 4, E. coli): 0.30
- CDI (coefficient of drug interaction) (Copper (mM), 3rd of 3 copper concentrations (head line not shown), biocide concentration 1 of 4, E. coli): 0.45
- CDI (coefficient of drug interaction) (Copper (mM), 3rd of 3 copper concentrations (head line not shown), biocide concentration 2 of 4, E. coli): 0.38
- CDI (coefficient of drug interaction) (Copper (mM), 3rd of 3 copper concentrations (head line not shown), biocide concentration 3 of 4, E. coli): 0.33
- CDI (coefficient of drug interaction) (Copper (mM), 3rd of 3 copper concentrations (head line not shown), biocide concentration 4 of 4, E. coli): 0.29
- CDI (coefficient of drug interaction), gold + biocide (first of 3 gold concentrations, biocide concentration 1 of 4): 1.04
- CDI (coefficient of drug interaction), gold + biocide (first of 3 gold concentrations, biocide concentration 2 of 4): 0.94
- CDI (coefficient of drug interaction), gold + biocide (first of 3 gold concentrations, biocide concentration 3 of 4): 1.05
- CDI (coefficient of drug interaction), gold + biocide (first of 3 gold concentrations, biocide concentration 4 of 4): 1.06
- CDI (coefficient of drug interaction), gold + biocide (second of 3 gold concentrations, biocide concentration 1 of 4): 1.03
- CDI (coefficient of drug interaction), gold + biocide (second of 3 gold concentrations, biocide concentration 2 of 4): 1.02
- CDI (coefficient of drug interaction), gold + biocide (second of 3 gold concentrations, biocide concentration 3 of 4): 1.14
- CDI (coefficient of drug interaction), gold + biocide (second of 3 gold concentrations, biocide concentration 4 of 4): 1.07
- CDI (coefficient of drug interaction), gold + biocide (third of 3 gold concentrations, biocide concentration 1 of 4): 1.08
- CDI (coefficient of drug interaction), gold + biocide (third of 3 gold concentrations, biocide concentration 2 of 4): 1.05
- CDI (coefficient of drug interaction), gold + biocide (third of 3 gold concentrations, biocide concentration 3 of 4): 1.13
- CDI (coefficient of drug interaction), gold + biocide (third of 3 gold concentrations, biocide concentration 4 of 4): 1.09
- CDI (Silver 0.5 μM, biocide concentration 1 of 4): 0.78
- CDI (Silver 0.5 μM, biocide concentration 2 of 4): 0.79
- CDI [1]: 0.75
- CDI [2]: 0.69
- CDI (Silver 1.0 μM, biocide concentration 1 of 4): 0.87
- CDI (Silver 1.0 μM, biocide concentration 2 of 4): 0.89
- CDI [3]: 0.83
- CDI [4]: 0.34
- CDI (Silver 5.0 μM, biocide concentration 1 of 4): 0.68
- CDI (Silver 5.0 μM, biocide concentration 2 of 4): 0.34
- CDI [5]: 0.38
- CDI [6]: 0.19

SMILES: O=[N+]([O-])c1ncc[nH]1 [2-nitroimidazole]
- CDI (coefficient of drug interaction), copper mixed with biocide [7]: Tox
- CDI (coefficient of drug interaction), copper mixed with biocide [8]: Tox
- CDI (coefficient of drug interaction), copper mixed with biocide [9]: Tox
- CDI (coefficient of drug interaction), copper mixed with biocide [10]: Tox
- CDI (coefficient of drug interaction), copper mixed with biocide [11]: Tox
- CDI (coefficient of drug interaction), copper mixed with biocide [12]: Tox
- CDI (coefficient of drug interaction) [13]: Tox
- CDI (coefficient of drug interaction) [14]: Tox
- CDI (coefficient of drug interaction) [15]: Tox
- CDI (coefficient of drug interaction) [16]: Tox
- CDI (coefficient of drug interaction) [17]: Tox
- CDI (coefficient of drug interaction) [18]: Tox
- CDI (coefficient of drug interaction), silver + biocide [19]: Tox
- CDI (coefficient of drug interaction), silver + biocide [20]: Tox
- CDI (coefficient of drug interaction), silver + biocide [21]: Tox
- CDI (coefficient of drug interaction), silver + biocide [22]: Tox
- CDI (coefficient of drug interaction), silver + biocide [23]: Tox
- CDI (coefficient of drug interaction), silver + biocide [24]: Tox

SMILES: Nc1n[nH]c(N)n1 [guanazole]
- CDI (coefficient of drug interaction), copper mixed with biocide [7]: Tox
- CDI (coefficient of drug interaction), copper mixed with biocide [8]: Tox
- CDI (coefficient of drug interaction), copper mixed with biocide [9]: Tox
- CDI (coefficient of drug interaction), copper mixed with biocide [10]: Tox
- CDI (coefficient of drug interaction), copper mixed with biocide [11]: Tox
- CDI (coefficient of drug interaction), copper mixed with biocide [12]: Tox
- CDI (coefficient of drug interaction) [13]: Tox
- CDI (coefficient of drug interaction) [14]: Tox
- CDI (coefficient of drug interaction) [15]: Tox
- CDI (coefficient of drug interaction) [16]: Tox
- CDI (coefficient of drug interaction) [17]: Tox
- CDI (coefficient of drug interaction) [18]: Tox
- CDI [1]: Tox
- CDI [2]: Tox
- CDI [3]: Tox
- CDI [4]: Tox
- CDI [5]: Tox
- CDI [6]: Tox

SMILES: CN(C)S(=O)(=O)N(SC(F)(Cl)Cl)c1ccccc1 [dichlofluanid]
- CDI (coefficient of drug interaction), copper mixed with biocide [8]: Tox
- CDI (coefficient of drug interaction), copper mixed with biocide (2nd of 3 copper concentrations (value not shown), 1st of four biocide concentrations): Tox
- CDI (coefficient of drug interaction), copper mixed with biocide [10]: Tox
- CDI (coefficient of drug interaction), copper mixed with biocide [12]: Tox
- CDI (coefficient of drug interaction) (Gold section of Table 5, first of three gold concentrations (μM, value not given), biocide concentration 2 of 4): Tox
- CDI (coefficient of drug interaction) (Gold section of Table 5, second of three gold concentrations (μM, value not given), biocide concentration 2 of 4): Tox
- CDI (coefficient of drug interaction) (Gold section of Table 5, third of three gold concentrations (μM, value not given), biocide concentration 2 of 4): Tox
- CDI (coefficient of drug interaction), silver + biocide (Silver 0.5 μM, 2nd of four biocide concentrations, E. coli): Tox
- CDI (coefficient of drug interaction), silver + biocide (Silver 1.0 μM, 1st of four biocide concentrations, E. coli): Tox
- CDI (coefficient of drug interaction), silver + biocide (Silver 1.0 μM, 2nd of four biocide concentrations, E. coli): Tox
- CDI (coefficient of drug interaction), silver + biocide (Silver 5.0 μM, 1st of four biocide concentrations, E. coli): Tox
- CDI (coefficient of drug interaction), silver + biocide (Silver 5.0 μM, 2nd of four biocide concentrations, E. coli): Tox

SMILES: c1cnc2c(c1)ccc1cccnc12 [1,10-phenanthroline]
- CDI (Copper 0.1 mM, biocide concentration 3 of 4): Tox
- CDI (Copper 0.1 mM, biocide concentration 4 of 4): Tox
- CDI (Copper 0.5 mM, biocide concentration 3 of 4): Tox
- CDI (Copper 0.5 mM, biocide concentration 4 of 4): Tox
- CDI (Copper 1.0 mM, biocide concentration 3 of 4): Tox
- CDI (Copper 1.0 mM, biocide concentration 4 of 4): Tox
- CDI (coefficient of drug interaction) (Gold 5 μM, biocide concentration 4 of 4, E. coli): Tox
- CDI (coefficient of drug interaction) (Gold 25 μM, biocide concentration 4 of 4, E. coli): Tox
- CDI (coefficient of drug interaction) [25]: Tox
- CDI (coefficient of drug interaction), silver + biocide [19]: Tox
- CDI (coefficient of drug interaction), silver + biocide [20]: Tox
- CDI (coefficient of drug interaction), silver + biocide [21]: Tox
- CDI (coefficient of drug interaction), silver + biocide [22]: Tox
- CDI (coefficient of drug interaction), silver + biocide [23]: Tox
- CDI (coefficient of drug interaction), silver + biocide [24]: Tox

SMILES: O=C1CN(/N=C/c2ccc([N+](=O)[O-])o2)C(=O)N1 [nitrofurantoin]
- CDI (coefficient of drug interaction) [25]: Tox

SMILES: O=[N+]([O-])c1ccc(Cl)c([N+](=O)[O-])c1 [1-chloro-2,4-dinitrobenzene]
- CDI (coefficient of drug interaction), copper mixed with biocide [8]: Tox
- CDI (coefficient of drug interaction), copper mixed with biocide [10]: Tox
- CDI (coefficient of drug interaction), copper mixed with biocide [12]: Tox
